Experimental findings from US9375000B2, “Pesticidal arylpyrrolidines” (Bayer Intellectual Property GmbH, priority 2011, dated 2016) are described below.

Common to all, as to type: in vivo
For assay [1], the system named is Two-Spotted Spider Mite (Tetranychus urticae). The experiment in a line: Two-spotted spider mite (Tetranychus urticae) spray test on kidney bean. To be noted: after 7 days. Put shortly:
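Kidney bean plants at the two-leaf stage carried 50-100 adult mites and were sprayed one day later with compound in DMF/polyoxyethylene alkyl phenyl ether diluted in water. Ammonium salt and penetration enhancer at 1000 ppm were added if needed. Acaricidal activity (% mites killed) was scored after 7 days in a greenhouse.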

Assay [2] relates to Cucurbit Leaf Beetle (Aulacophora femoralis). As to the kind of experiment: Cucurbit leaf beetle (Aulacophora femoralis) cucumber leaf dip test. To be noted: after 7 days. In a few lines:
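Cucumber leaves dipped in compound formulated with DMF and polyoxyethylene alkyl phenyl ether, diluted in water, with ammonium salt or ammonium salt plus penetration enhancer at 1000 ppm added if necessary; dried leaves placed on sterilized soil with five second-instar larvae. Kept at 25° C; larval mortality counted after 7 days.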

Assay [3] has as its system Larvae of Spodoptera litura. The experiment in a line: Larvae of Spodoptera litura, method using artificial feeds. The following applies: artificial feed, after 7 days. In a few lines: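 Compound formulated in dimethylformamide with polyoxyethylene alkyl phenyl ether emulsifier, water-diluted and poured onto artificial diet. Five 3rd-instar Spodoptera litura larvae per cup, held at 25° C and 50-60% humidity. Mortality after 7 days expressed as pesticidal ratio.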

Assay [4] concerns Thrips palmi. As to the kind of experiment: Thrips palmi spray test (THRIPL). To be noted: after 6 days. As for the experimental part:
Unless not mentioned otherwise, the test solutions were prepared as follows:
Solvent: 3 parts by weight Dimethylformamide
Emulsifier: 1 part by weight Polyoxyethylene alkyl phenyl ether
In order to make an appropriate formulation of an active compound, 1 part by weight of the active compound is mixed with the above mentioned amount of solvent and emulsifier and the mixture is diluted with water to a prescribed concentration. Ammonium salt or ammonium salt and penetration enhancer in a dosage of 1000 ppm are added to the desired concentration if necessary.
The compound solutions are sprayed to a cucumber seedling (Cucumis sativus). After drying, the treated plant is placed in a plastic stand. About 100 thrips-eggs (Thrips palmi) on a piece of filter paper are attached to the plant and covered with a cage to keep 100% humidity. The plant is kept in a room at 23° C. After 6 days activity in % is evaluated by feeding damage degree. An insecticidal activity of 100 means that there was no feeding damage, whereas an insecticidal activity of 0% means that there is no difference to the untreated control.

The mark [5] stands for this setting: active compound concentration 4 ppm.
The mark [6] stands for this setting: active compound concentration 20 ppm.
[7] abbreviates: active compound concentration 100 ppm.

For the molecule `CC(=O)NCc1ccc(N2CCC(c3cc(C(F)(F)F)cc(C(F)(F)F)c3)(C(F)(F)F)C2O)cc1C(F)(F)F` (mixture of isomers) [A1-56], the acaricidal activity in assay [1] (setting [5]) stood at 100%. In assay [2] (setting [5]), this molecule yielded an insecticidal activity of 100%. Besides, in assay [3] (setting [5]), the “insecticidal activity (pesticidal ratio)” value is 100%. Further, the “insecticidal activity (by feeding damage degree)” value in assay [4] (setting [6]) stood at 98%.
The molecule `O=C(NCc1ccc(N2CCC(c3cc(C(F)(F)F)cc(C(F)(F)F)c3)(C(F)(F)F)C2O)cc1C(F)(F)F)C1CC1` (mixture of isomers) [A1-60] came in with an acaricidal activity in assay [1] (setting [6]) of 100%. Further, in assay [2] (setting [5]), the insecticidal activity is given as 100%. Moreover, in assay [3] (setting [5]), the “insecticidal activity (pesticidal ratio)” value was 100%. Further, the “insecticidal activity (by feeding damage degree)” value in assay [4] (setting [6]) was 98%.
Turning to `CC(=O)NCc1ccc(N2CCC(c3cc(Cl)cc(C(F)(F)F)c3)(C(F)(F)F)C2O)nc1C(F)(F)F` (mixture of isomers) [A3-265], in assay [1] (setting [6]), the acaricidal activity is 100%. Besides, the insecticidal activity in assay [2] (setting [5]) and in assay [2] (setting [6]) was 100% in each case. The “insecticidal activity (pesticidal ratio)” value in assay [3] (setting [5]) and in assay [3] (setting [6]) was 100% throughout. The “insecticidal activity (by feeding damage degree)” value in assay [4] (setting [6]) came to 90%.
Consider `O=C(CC1CC1)NCc1ccc(N2CCC(c3cc(Cl)cc(C(F)(F)F)c3)(C(F)(F)F)C2O)nc1C(F)(F)F` (mixture of isomers) [A3-270], for which the acaricidal activity in assay [1] (setting [5]) and in assay [1] (setting [6]) was 100% in each case. For the same molecule, the insecticidal activity in assay [2] (setting [5]) and in assay [2] (setting [6]) was 100% throughout. The “insecticidal activity (pesticidal ratio)” value in assay [3] (setting [5]) and in assay [3] (setting [6]) was 100% throughout. The “insecticidal activity (by feeding damage degree)” value in assay [4] (setting [6]) is 90%.
`CS(=O)(=O)CC(=O)NCc1ccc(N2CCC(c3cccc(C(F)(F)F)c3)(C(F)(F)F)C2O)nc1C(F)(F)F` (racemic) [A3-231]: the acaricidal activity in assay [1] (setting [5]) and in assay [1] (setting [6]) was 100% throughout. Besides, the insecticidal activity in assay [2] (setting [5]) and in assay [2] (setting [6]) was 100% throughout. Also, in assay [3] (setting [5]), the “insecticidal activity (pesticidal ratio)” value is given as 80%. Besides, the “insecticidal activity (by feeding damage degree)” value in assay [4] (setting [6]) was 90%.
In assay [1] (setting [5]), `CC(=O)NCc1ccc(N2CCC(c3cc(C(F)(F)F)cc(C(F)(F)F)c3)(C(F)(F)F)C2O)cc1Br` (centres unmarked) [A1-216] gave an acaricidal activity of 90%. In addition, the insecticidal activity in assay [2] (setting [5]) is listed as 100%. Also, the “insecticidal activity (pesticidal ratio)” value in assay [3] (setting [5]) is recorded as 100%. The “insecticidal activity (by feeding damage degree)” value in assay [4] (setting [6]) came out at 90%.
As for `CCC(=O)NCc1ccc(N2CCC(c3cc(C(F)(F)F)cc(C(F)(F)F)c3)(C(F)(F)F)C2O)cc1Br` (centres unmarked) [A1-217], the acaricidal activity in assay [1] (setting [5]) was found to be 100%. Further, the insecticidal activity in assay [2] (setting [5]) amounted to 100%. In assay [3] (setting [5]), the “insecticidal activity (pesticidal ratio)” value amounted to 100%. In addition, the “insecticidal activity (by feeding damage degree)” value in assay [4] (setting [6]) is reported as 90%.
Regarding `O=C(NCc1ccc(N2CCC(c3cc(C(F)(F)F)cc(C(F)(F)F)c3)(C(F)(F)F)C2O)cc1Br)C1CC1` (centres unmarked) [A1-220], in assay [1] (setting [5]), the acaricidal activity worked out at 100%. The molecule further returned an insecticidal activity in assay [2] (setting [5]) of 100%. In addition, in assay [3] (setting [5]), the “insecticidal activity (pesticidal ratio)” value is 100%. Besides, in assay [4] (setting [6]), the “insecticidal activity (by feeding damage degree)” value is listed as 90%.
As to `CCC(=O)NCc1ccc(N2CCC(c3cc(Br)cc(Br)c3)(C(F)(F)F)C2O)cc1C(F)(F)F` (centres unmarked) [A1-250], the acaricidal activity in assay [1] (setting [5]) and in assay [1] (setting [6]) was 100% throughout. In addition, the insecticidal activity in assay [2] (setting [5]) and in assay [2] (setting [6]) was 100% throughout. Moreover, the “insecticidal activity (pesticidal ratio)” value in assay [3] (setting [5]) and in assay [3] (setting [6]) was 100% in each case. The “insecticidal activity (by feeding damage degree)” value in assay [4] (setting [6]) worked out at 90%.
With `CCC(=O)NCc1ccc(N2CCC(c3cc(F)cc(C(F)(F)F)c3)(C(F)(F)F)C2O)cc1C(F)(F)F` (centres unmarked) [A1-316], the acaricidal activity in assay [1] (setting [5]) and in assay [1] (setting [6]) was 100% throughout. Also, the insecticidal activity in assay [2] (setting [5]) and in assay [2] (setting [6]) was 100% each time. Moreover, the “insecticidal activity (pesticidal ratio)” value in assay [3] (setting [5]) and in assay [3] (setting [6]) was 100% in each case. Also, the “insecticidal activity (by feeding damage degree)” value in assay [4] (setting [6]) turned out to be 90%.
For the molecule `O=C(NCc1ccc(N2CCC(c3cc(F)cc(C(F)(F)F)c3)(C(F)(F)F)C2O)cc1C(F)(F)F)C1CC1` (centres unmarked) [A1-319], the acaricidal activity in assay [1] (setting [5]) and in assay [1] (setting [6]) was 100% throughout. The insecticidal activity in assay [2] (setting [5]) and in assay [2] (setting [6]) was 100% each time. For the same molecule, the “insecticidal activity (pesticidal ratio)” value in assay [3] (setting [5]) and in assay [3] (setting [6]) was 100% each time. Also, the “insecticidal activity (by feeding damage degree)” value in assay [4] (setting [6]) turned out to be 90%.
`O=C(NCc1ccc(N2CCC(c3cc(Cl)c(F)c(Cl)c3F)(C(F)(F)F)C2O)cc1Br)C1CC1` (centres unmarked) [A1-433]: in assay [1] (setting [5]), the acaricidal activity is 100%. This molecule also yielded an insecticidal activity in assay [2] (setting [5]) of 100%. For the same molecule, the “insecticidal activity (pesticidal ratio)” value in assay [3] (setting [5]) is on record as 100%. Also, in assay [4] (setting [6]), the “insecticidal activity (by feeding damage degree)” value is on record as 90%.
In the case of `O=C(CC1CC1)NCc1ccc(N2CCC(c3cc(Cl)cc(Cl)c3)(C(F)(F)F)C2O)nc1C(F)(F)F` (centres unmarked) [A3-6], the acaricidal activity in assay [1] (setting [5]) and in assay [1] (setting [6]) was 100% in each case. Further, the insecticidal activity in assay [2] (setting [5]) and in assay [2] (setting [6]) was 100% in each case. The “insecticidal activity (pesticidal ratio)” value in assay [3] (setting [5]) and in assay [3] (setting [6]) was 100% in each case. Besides, in assay [4] (setting [6]), the “insecticidal activity (by feeding damage degree)” value is on record as 90%.
With `CS(=O)(=O)CC(=O)NCc1ccc(N2CCC(c3cc(Cl)cc(Cl)c3)(C(F)(F)F)C2O)nc1C(F)(F)F` (centres unmarked) [A3-11], the acaricidal activity in assay [1] (setting [5]) and in assay [1] (setting [6]) was 100% in each case. The insecticidal activity in assay [2] (setting [5]) and in assay [2] (setting [6]) was 100% in each case. Further, the “insecticidal activity (pesticidal ratio)” value in assay [3] (setting [5]) and in assay [3] (setting [6]) was 100% in each case. Moreover, the “insecticidal activity (by feeding damage degree)” value in assay [4] (setting [6]) is 98%.
As to `O=C(CC(F)(F)F)NCc1ccc(N2CCC(c3cc(Cl)c(Cl)c(Cl)c3)(C(F)(F)F)C2O)nc1C(F)(F)F` (centres unmarked) [A3-18], the acaricidal activity in assay [1] (setting [5]) and in assay [1] (setting [6]) was 100% each time. The insecticidal activity in assay [2] (setting [5]) and in assay [2] (setting [6]) was 100% in each case. Also, the “insecticidal activity (pesticidal ratio)” value in assay [3] (setting [5]) and in assay [3] (setting [6]) was 100% each time. Also, the “insecticidal activity (by feeding damage degree)” value in assay [4] (setting [6]) is recorded as 98%.
Consider `CS(=O)(=O)CC(=O)NCc1ccc(N2CCC(c3cc(Cl)cc(C(F)(F)F)c3)(C(F)(F)F)C2O)nc1C(F)(F)F` (centres unmarked) [A3-275], for which the acaricidal activity in assay [1] (setting [5]) and in assay [1] (setting [6]) was 100% in each case. The insecticidal activity in assay [2] (setting [5]) and in assay [2] (setting [6]) was 100% throughout. The “insecticidal activity (pesticidal ratio)” value in assay [3] (setting [5]) and in assay [3] (setting [6]) was 100% in each case. Besides, the “insecticidal activity (by feeding damage degree)” value in assay [4] (setting [6]) was determined as 98%.
`O=C(NCc1ccc(N2CCC(c3cc(Cl)cc(Cl)c3F)(C(F)(F)F)C2O)nc1C(F)(F)F)C1CC1` (centres unmarked) [A3-348] registered an acaricidal activity in assay [1] (setting [5]) of 100%. This molecule showed an insecticidal activity in assay [2] (setting [5]) of 100%. For the same molecule, the “insecticidal activity (pesticidal ratio)” value in assay [3] (setting [5]) amounted to 100%. Further, in assay [4] (setting [6]), the “insecticidal activity (by feeding damage degree)” value is reported as 90%.
As to `CCC(=O)NCc1cc(F)c(N2CCC(c3cc(C(F)(F)F)cc(C(F)(F)F)c3)(C(F)(F)F)C2O)nc1Cl` (centres unmarked) [A3-378], the acaricidal activity in assay [1] (setting [7]) is recorded as 98%. In addition, the insecticidal activity in assay [2] (setting [5]) was 100%. The “insecticidal activity (pesticidal ratio)” value in assay [3] (setting [5]) was determined as 100%. The “insecticidal activity (by feeding damage degree)” value in assay [4] (setting [7]) was determined as 90%.
Regarding `Cc1nc(N2CCC(c3cc(Cl)c(Cl)c(Cl)c3)(C(F)(F)F)C2O)ncc1CNC(=O)C1CC1` (centres unmarked) [A4-49], the acaricidal activity in assay [1] (setting [5]) stood at 98%. This molecule yielded an insecticidal activity in assay [2] (setting [6]) of 100%. The “insecticidal activity (pesticidal ratio)” value in assay [3] (setting [5]) and in assay [3] (setting [6]) was 100% throughout. Also, the “insecticidal activity (by feeding damage degree)” value in assay [4] (setting [6]) was 98%.
Take `O=C(NCc1cnc(N2CCC(c3cc(Cl)c(Cl)c(Cl)c3)(C(F)(F)F)C2O)nc1C(F)F)C1CC1` (centres unmarked) [A4-219]: the acaricidal activity in assay [1] (setting [5]) came to 100%. This molecule also showed an insecticidal activity in assay [2] (setting [5]) of 100%. Moreover, the “insecticidal activity (pesticidal ratio)” value in assay [3] (setting [5]) is on record as 100%. The “insecticidal activity (by feeding damage degree)” value in assay [4] (setting [6]) is reported as 90%.
`O=C(CC(F)(F)F)NCc1cnc(N2CCC(c3cc(Cl)c(Cl)c(Cl)c3)(C(F)(F)F)C2O)nc1C(F)F` (centres unmarked) [A4-221] returned an acaricidal activity in assay [1] (setting [5]) of 100%. The insecticidal activity in assay [2] (setting [5]) is 100%. The “insecticidal activity (pesticidal ratio)” value in assay [3] (setting [5]) is on record as 100%. Further, the “insecticidal activity (by feeding damage degree)” value in assay [4] (setting [6]) stood at 90%.
